From ChEMBL document CHEMBL1123071 (J Med Chem, 1985) come the findings set out here.

The target in the first series is T1, Dihydrofolate reductase type 1 (Escherichia coli) (UniProt P00382).
T1 sequence (whole entry): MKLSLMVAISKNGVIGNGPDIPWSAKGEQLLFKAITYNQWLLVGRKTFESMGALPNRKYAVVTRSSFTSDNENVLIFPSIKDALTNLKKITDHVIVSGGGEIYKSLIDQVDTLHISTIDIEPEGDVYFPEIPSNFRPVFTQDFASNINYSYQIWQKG
Briefly: Inhibition of dihydrofolate reductase (DHFR) from Escherichia coli.
Conditions: not given
Turning to `CC1(C)N=C(N)N=C(N)N1Cc1ccccc1`, the Log 1/C is 4.47.

The molecule `CC(=O)Nc1ccc(Cc2cnc(N)nc2N)cc1[N+](=O)[O-]` came in with a Log 1/C of 6.97.

On to `CN1C(N)=NC(N)=NC1(C)C`, for which the Log 1/C was 4.32.

On to `CC1(C)N=C(N)N=C(N)N1c1ccc(-c2ccccc2)cc1`, for which the Log 1/C was 5.24.

Regarding `COc1cccc(N2C(N)=NC(N)=NC2(C)C)c1`, the Log 1/C turned out to be 5.41.

Take `CC1(C)N=C(N)N=C(N)N1c1cccc(Cl)c1`: the Log 1/C worked out at 6.22.

For `CC1(C)N=C(N)N=C(N)N1c1ccc(C#N)cc1`, the Log 1/C was 4.04.

Turning to `CC1(C)N=C(N)N=C(N)N1c1cccc(Cc2ccccc2)c1`, the Log 1/C is 6.55.

In the case of `Nc1ncc(Cc2ccc([N+](=O)[O-])cc2)c(N)n1`, the Log 1/C came to 6.2.

`CCOC(=O)c1ccc(N2C(N)=NC(N)=NC2(C)C)cc1` returned a Log 1/C of 4.42.

For the molecule `CS(=O)(=O)Oc1cccc(Cc2cnc(N)nc2N)c1`, the Log 1/C turned out to be 6.92.

`CC1(C)N=C(N)N=C(N)N1c1cccc([N+](=O)[O-])c1` returned a Log 1/C of 5.51.

Regarding `COc1ccc(Cc2cnc(N)nc2N)cc1C(F)(F)F`, the Log 1/C came out at 7.69.

The molecule `CC1(C)N=C(N)N=C(N)N1c1cccc(C(F)(F)F)c1` registered a Log 1/C of 5.64.

`CC1(C)N=C(N)N=C(N)N1c1ccc(Cl)cc1` yielded a Log 1/C of 6.4.

On to `CC1(C)N=C(N)N=C(N)N1c1ccc(Cl)c(Cl)c1`, for which the Log 1/C came to 6.8.

In turn, `CC1(C)N=C(N)N=C(N)N1c1ccccc1` returned a Log 1/C of 5.52.

The molecule `CC1(C)N=C(N)N=C(N)N1CCCc1ccccc1` returned a Log 1/C of 7.2.

Regarding `CC1(C)N=C(N)N=C(N)N1CCc1ccccc1`, the Log 1/C came to 5.42.

`CC1(C)N=C(N)N=C(N)N1c1cccc(C(=O)O)c1` returned a Log 1/C of 3.89.

`CCCN1C(N)=NC(N)=NC1(C)C`: the Log 1/C came to 5.33.

On to `CC1(C)N=C(N)N=C(N)N1c1ccc(C(=O)O)cc1`, for which the Log 1/C worked out at 2.72.

In turn, `Nc1ncc(Cc2ccc(OC(F)(F)F)cc2)c(N)n1` gave a Log 1/C of 6.57.

Test system in a further series: not given
Test: not given
Particulars: octanol/water.
In the case of `NC(N)=S` [THIOUREA], the logP is recorded as -1.06.

Test system in the next series: not listed separately
Put plainly: physchem. The settings on record: octanol/water.
As to `N=C=N` [CARBIMIDE], the logP was -0.5.

Take `O=[N+]([O-])c1cccc(I)c1`: the logP stood at 2.94.

`CBr` [BROMOMETHANE] showed a logP of 1.19.

Turning to `FCF`, the logP was 0.2.

As for `Oc1cccc(I)c1`, the logP is 3.

For `ClC(Cl)=C(Cl)Cl` [TETRACHLOROETHYLENE], the logP stood at 2.6.

As to `FC(F)(Cl)C(F)(F)Cl` [DICHLOROTETRAFLUOROETHANE], the logP amounted to 2.82.

On to `C=C`, for which the logP was 1.13.

With `OCC(Cl)Cl`, the logP turned out to be 0.37.

Molecule `FC(Cl)Cl` displayed a lipophilicity (logP) of 1.55.

On to `CC#N` [ACETONITRILE], for which the logP was -0.34.

In the case of `COC` [METHOXYMETHANE], the logP is 0.1.

On to `C=CCC`, for which the logP was 2.4.

Take `CCOCCO` [2-ETHOXYETHANOL]: the logP is -0.54.

`O=Nc1ccccc1` [NITROSOBENZENE] gave a logP of 2.01.

For `C[S+]([O-])c1ccccc1` (configuration not stated) [METHYLPHENYLSULFOXIDE], the logP is 0.55.

Turning to `Clc1ccccc1` [CHLOROBENZENE], the logP came out at 2.46.

Molecule `CN(C)N=O` [N-NITROSODIMETHYLAMINE] yielded a logP of -0.57.

`O=NN(CCF)C(=O)NCCCl` showed a logP of 0.95.

In the case of `O=C(O)CBr` [BROMOACETIC ACID], the logP was 0.41.

Take `C=C=C`: the logP stood at 1.45.

The molecule `C=COCC` yielded a logP of 1.04.

Regarding `O=C(O)CS` [THIOGLYCOLIC ACID], the logP amounted to 0.09.

The molecule `ClC=C(Cl)Cl` [TRICHLOROETHYLENE] had a logP of 2.29.

For the molecule `CCSCC` [DIETHYL SULFIDE], the logP was 1.95.

`CC(C)N` [ISOPROPYLAMINE] registered a logP of 0.26.

Regarding `NC(=O)C(Cl)(Cl)Cl`, the logP came to 1.04.

For the molecule `C#C` [ETHYNE], the logP was determined as 0.37.

Turning to `O=Nc1ccc(O)c(C(=O)O)c1`, the logP stood at 2.34.

`CI` [IODOMETHANE] displayed a logP of 1.51.

`Brc1ccccn1` yielded a logP of 1.38.

Molecule `FC(F)(F)C(F)(F)F` yielded a logP of 2.

`COC(C)=O` [ACETIC ACID METHYL ESTER] gave a logP of 0.18.

`O=c1[nH]cc(I)c(=O)[nH]1`: the logP amounted to 0.04.

The molecule `C#CC` [PROPYNE] came in with a logP of 0.94.

Regarding `CN` [METHYLAMINE], the logP is -0.57.

Molecule `CC[N+](=O)[O-]` [NITROETHANE] gave a logP of 0.18.

`CCOC(C)=O` [ETHYL ACETATE] displayed a logP of 0.7.

Consider `CO` [METHYL ALCOHOL], for which the logP is -0.71.

Molecule `C[N+](C)(C)CCI` displayed a logP of -3.

`C=C(F)F` came in with a logP of 1.24.

Take `FC(F)Cl`: the logP came out at 1.08.

In turn, `CC(C)N(N=O)C(C)C` yielded a logP of 1.63.

Consider `ClCCl` [METHYLENE CHLORIDE], for which the logP was found to be 1.25.

In the case of `C1=CCOC1`, the logP stood at 0.46.

In the case of `Cc1cccc([N+](C)(C)C)c1`, the logP was -2.31.

The molecule `COc1ccccc1` [ANISOLE] returned a logP of 2.08.

Molecule `C=CC` [PROPENE] had a logP of 1.77.

`CCCCCF`: the logP came out at 2.33.

As to `O=CO` [FORMIC ACID], the logP is -0.54.

For `CCNC(N)=S`, the logP is -0.66.

Molecule `Nc1cccc(Cl)c1` [3-CHLOROANILINE] came in with a lipophilicity (logP) of 1.88.

In turn, `OCC(Cl)(Cl)Cl` [TRICHLORETHANOL] displayed a log partition coefficient (logP) of 1.42.

Turning to `C=CC#N` [ACRYLONITRILE], the logP was -0.92.

Take `CC#CC`: the logP was 1.46.

`NC(=O)CBr` displayed a logP of -0.52.

`CC(O)CN` (configuration not stated) registered a logP of -0.96.

As for `NC(N)=O` [UREA], the logP is -1.09.

Molecule `CC(F)F` gave a logP of 0.75.

As to `Brc1ccncc1`, the logP turned out to be 1.54.

Molecule `Sc1ccccc1` [BENZENETHIOL] gave a logP of 2.52.

Molecule `CCCl` [ETHYL CHLORIDE] showed a log partition coefficient (logP) of 1.43.

`CS(=O)(=O)c1ccccc1` [METHYLPHENYLSULFONE] displayed a logP of 0.48.

In the case of `OCC(F)(F)F` [TRIFLUOROETHANOL], the logP was determined as 0.41.

`O=[N+]([O-])CCO` had a logP of -0.42.

As for `CF` [FLUOROMETHANE], the logP was determined as 0.51.

In the case of `CCOCC` [ETHER], the logP turned out to be 0.77.

In turn, `CNC(C)=O` registered a logP of -1.05.

The molecule `CC(Cl)(Cl)Cl` [TRICHLOROETHANE] came in with a logP of 2.49.

`CN(N=O)C(N)=O` [N-METHYL-N-NITROSUREA] had a logP of -0.16.

On to `CCN` [ETHYLAMINE], for which the logP was -0.13.

Take `NC(=O)C(F)(F)F` [TRIFLUOROACETAMIDE]: the logP worked out at 0.12.

Take `CSc1ccccc1`: the logP was found to be 2.74.

As a reminder, the logP is a log measure of how a compound divides between an organic and an aqueous phase. Read a low logP as lower lipophilicity.
